Experimental findings from ChEMBL document CHEMBL3864140, “Melanogenesis inhibitory activity of a 7-O-9'-linked neolignan from Alpinia galanga fruit” (Bioorg Med Chem, 2016) are described below.

Broadly, the pIC50 is −log10 of the IC50, conventionally taken in molar units.

Series [1] is described as follows: Antimelanogenic activity in theophylline-stimulated mouse B16-4A5 cells assessed as inhibition of melanogenesis at 0.3 uM after 72 hrs relative to control. Format: functional. Conditions: B16-4A5, 72 h.
Series [2] is described as follows: Antimelanogenic activity in theophylline-stimulated mouse B16-4A5 cells assessed as inhibition of melanogenesis at 1 uM after 72 hrs relative to control. In kind it is functional. Conditions: B16-4A5, 72 h.
The nature of series [3]: Antimelanogenic activity in theophylline-stimulated mouse B16-4A5 cells assessed as inhibition of melanogenesis at 3 uM after 72 hrs relative to control. In kind it is functional. Conditions: B16-4A5, 72 h.
Series [4] in a line: Antimelanogenic activity in theophylline-stimulated mouse B16-4A5 cells assessed as inhibition of melanogenesis at 10 uM after 72 hrs relative to control. As to conditions: B16-4A5, 72 h. In kind it is functional.
The nature of series [5]: Antimelanogenic activity in theophylline-stimulated mouse B16-4A5 cells assessed as inhibition of melanogenesis after 72 hrs relative to control. In kind it is functional, cell-based.
Series [6] in a line: Cytotoxicity against theophylline-stimulated mouse B16-4A5 cells assessed as cell viability at 0.3 uM after 72 hrs by MTT assay relative to control. Format: toxicity. Conditions: theophylline-stimulated B16-4A5 cells, read-out: Activity. (Tetrazolium assays rely on reduction of a dye to a coloured formazan, in cell work by metabolically active cells.)
Series [7] is described as follows: Cytotoxicity against theophylline-stimulated mouse B16-4A5 cells assessed as cell viability at 1 uM after 72 hrs by MTT assay relative to control. Format: toxicity. Conditions: theophylline-stimulated B16-4A5 cells, read-out: Activity.
Series [8] can be described thus: Cytotoxicity against theophylline-stimulated mouse B16-4A5 cells assessed as cell viability at 3 uM after 72 hrs by MTT assay relative to control. As to conditions: theophylline-stimulated B16-4A5 cells, read-out: Activity. Format: toxicity.
Series [9] is described as follows: Cytotoxicity against theophylline-stimulated mouse B16-4A5 cells assessed as cell viability at 10 uM after 72 hrs by MTT assay relative to control. In kind it is toxicity. Conditions: theophylline-stimulated B16-4A5 cells, read-out: Activity.
Series [10] is described as follows: Downregulation of tyrosinase expression in theophylline-stimulated mouse B16-4A5 cells assessed as ratio of tyrosinase mRNA expression to beta-actin mRNA expression at 3 uM after 72 hrs by qRT-PCR analysis (reference value: […] +/- […]). Format: functional, cell-based. (In general: Real-time PCR tracks product formation cycle by cycle.)
The nature of series [11]: Downregulation of tyrosinase expression in theophylline-stimulated mouse B16-4A5 cells assessed as ratio of tyrosinase mRNA expression to beta-actin mRNA expression at 10 uM after 72 hrs by qRT-PCR analysis (reference value: […] +/- […]). Format: functional, cell-based.
Series [12] is described as follows: Downregulation of TRP1 expression in theophylline-stimulated mouse B16-4A5 cells assessed as ratio of TRP1 mRNA expression to beta-actin mRNA expression at 3 uM after 72 hrs by qRT-PCR analysis (reference value: […] +/- […]). Format: functional, cell-based.
Series [13] is described as follows: Downregulation of TRP1 expression in theophylline-stimulated mouse B16-4A5 cells assessed as ratio of TRP1 mRNA expression to beta-actin mRNA expression at 10 uM after 72 hrs by qRT-PCR analysis (reference value: […] +/- […]). Format: functional, cell-based.
A short description of series [14]: Downregulation of TRP2 expression in theophylline-stimulated mouse B16-4A5 cells assessed as ratio of TRP2 mRNA expression to beta-actin mRNA expression at 3 uM after 72 hrs by qRT-PCR analysis (reference value: […] +/- […]). Format: functional, cell-based.
The nature of series [15]: Downregulation of TRP2 expression in theophylline-stimulated mouse B16-4A5 cells assessed as ratio of TRP2 mRNA expression to beta-actin mRNA expression at 10 uM after 72 hrs by qRT-PCR analysis (reference value: […] +/- […]). Format: functional, cell-based.
Series [16] is described as follows: Antimelanogenic activity in theophylline-stimulated mouse B16-4A5 cells assessed as inhibition of melanogenesis at 300 uM after 72 hrs relative to control. Format: functional. Conditions: B16-4A5, 72 h.
Series [17] is described as follows: Antimelanogenic activity in theophylline-stimulated mouse B16-4A5 cells assessed as inhibition of melanogenesis at 1000 uM after 72 hrs relative to control. Format: functional. Conditions: B16-4A5, 72 h.
Series [18] in a line: Cytotoxicity against theophylline-stimulated mouse B16-4A5 cells assessed as cell viability at 30 uM after 72 hrs by MTT assay relative to control. Format: toxicity. Conditions: theophylline-stimulated B16-4A5 cells, read-out: Activity.
Series [19] is described as follows: Cytotoxicity against theophylline-stimulated mouse B16-4A5 cells assessed as cell viability at 100 uM after 72 hrs by MTT assay relative to control. Format: toxicity. As to conditions: theophylline-stimulated B16-4A5 cells, read-out: Activity.
The nature of series [20]: Cytotoxicity against theophylline-stimulated mouse B16-4A5 cells assessed as cell viability at 300 uM after 72 hrs by MTT assay relative to control. Format: toxicity. Conditions: theophylline-stimulated B16-4A5 cells, read-out: Activity.
Series [21] is described as follows: Cytotoxicity against theophylline-stimulated mouse B16-4A5 cells assessed as cell viability at 1000 uM after 72 hrs by MTT assay relative to control. Conditions: theophylline-stimulated B16-4A5 cells, read-out: Activity. Format: toxicity.
Series [22] can be described thus: cells. Conditions: Mus musculus, B16-4A5, 72 h, read-out: INH.
Description: Antimelanogenic activity in theophylline-stimulated mouse B16-4A5 cells assessed as inhibition of melanogenesis at 30 uM after 72 hrs relative to control
Series [23] is described as follows: cells. As to conditions: Mus musculus, B16-4A5, 72 h, read-out: INH. The source holds these as a separate data set.
The nature of series [24]: Potency index, ratio of arbutin IC50 to compound IC50 for antimelanogenic activity in mouse B16-4A5 cells. In kind it is functional.

pIC50: −log10 of the molar value. Some results are limits rather than exact numbers.

Turning to `C=CC(OC/C=C/c1ccc(OC(C)=O)cc1)c1ccc(OC(C)=O)cc1` (racemic), the inhibition at 0.3 µM in series [1] was found to be 10.3%. Moreover, in [2], the inhibition at 1 µM is 32.4%. Further, in series [3], the inhibition at 3 µM stood at 57.2%. Further, the inhibition at 10 µM in series [4] is -5.5%. Moreover, in series [5], the pIC50 is 5.66. The viability at 72 h, 0.3 µM in series [6] came to 105%. Also, the viability at 72 h, 1 µM in series [7] was found to be 99.3%. The viability at 72 h, 3 µM in series [8] stood at 85.2%. The viability at 72 h, 10 µM in [9] was found to be 12.9%. Further, the Ratio in series [10] stood at 0.77; in series [11], 0.6; in series [12], 0.79; in series [13] it was 0.81; in series [14], 0.86; in series [15], 0.81.

On to `C=C[C@@H](OC/C=C/c1ccc(OC(C)=O)cc1)c1ccc(OC(C)=O)cc1`, for which the inhibition at 0.3 µM in series [1] was 10.8%. Besides, the inhibition at 1 µM in [2] is 31.8%. The inhibition at 3 µM in [3] turned out to be 71.4%. For the same molecule, the inhibition at 10 µM in series [4] amounted to 137%. Further, the pIC50 in [5] is 5.72. Besides, the viability at 72 h, 0.3 µM in series [6] is 107%. The viability at 72 h, 1 µM in series [7] was determined as 102%. For the same molecule, the viability at 72 h, 3 µM in series [8] stood at 81.5%. Besides, the viability at 72 h, 10 µM in [9] was 29.7%. Further, the Ratio is 0.84 in [10]; 0.56 in series [11]; 0.92 in series [12]; 0.94 in [13]; 1.67 in series [14]; 0.88 in series [15].

`OC[C@H]1O[C@@H](Oc2ccc(O)cc2)[C@H](O)[C@@H](O)[C@@H]1O` [ARBUTIN]: the inhibition at 300 µM in [16] is 61.5%. Also, the inhibition at 1000 µM in series [17] was 83.7%. The viability at 72 h, 30 µM in series [18] was 82.4%. In addition, the viability at 72 h, 100 µM in series [19] was found to be 78.1%. Besides, in series [20], the viability at 72 h, 300 µM came out at 79.8%. The viability at 72 h, 1000 µM in [21] was determined as 53.1%. Besides, the inhibition at 30 µM in series [22] was determined as 20.4%. Further, in series [23], the inhibition at 100 µM stood at 38.1%.

`C=C[C@H](OC/C=C/c1ccc(OC(C)=O)cc1)c1ccc(OC(C)=O)cc1`: in series [1], the inhibition at 0.3 µM was -5.9%. In addition, the inhibition at 1 µM in [2] came out at 10%. The inhibition at 3 µM in [3] is 58.5%. Also, in series [4], the inhibition at 10 µM is 117%. Also, in series [5], the negative logarithm of the IC50 (pIC50) was 5.60. In addition, the viability at 72 h, 0.3 µM in series [6] is 98.1%. Moreover, in series [7], the viability at 72 h, 1 µM is 82.9%. In addition, in [8], the viability at 72 h, 3 µM is 68.5%. Also, in series [9], the viability at 72 h, 10 µM is 26.5%. The “Ratio IC50” value in [24] was >25 - 70. In addition, the Ratio is 0.87 in [10]; 0.53 in [11]; 0.76 in [12]; 0.99 in series [13]; 0.72 in series [14]; 1.43 in series [15].

With `C=C[C@H](OC(C)=O)c1ccc(OC(C)=O)cc1` [1'-ACETOXYCHAVICOL ACETATE], in series [1], the inhibition at 0.3 µM turned out to be 9.3%. The inhibition at 1 µM in series [2] was determined as 6.2%. The inhibition at 3 µM in series [3] came to 29.8%. In addition, the inhibition at 10 µM in series [4] was 73.1%. For the same molecule, in series [5], the pIC50 was 5.30. The viability at 72 h, 0.3 µM in series [6] was determined as 103%. Also, the viability at 72 h, 1 µM in series [7] worked out at 102%. Further, in series [8], the viability at 72 h, 3 µM turned out to be 99.9%. For the same molecule, the viability at 72 h, 10 µM in series [9] was 99.9%. In [24], the “Ratio IC50” value is >25 - 70. Moreover, the Ratio in [10] amounted to 1; in series [11], 0.49; in [12] it was 0.86; in series [13] it was 0.5; in series [14], 1.08; in series [15], 0.34.

Consider `C=C[C@H](OC(C)=O)c1ccc(OC(C)=O)c(OC)c1`, for which the inhibition at 0.3 µM in [1] is -4.9%. For the same molecule, the inhibition at 1 µM in [2] amounted to 15.3%. Moreover, the inhibition at 3 µM in [3] was found to be 16.8%. Besides, the inhibition at 10 µM in series [4] was 84.4%. In addition, the negative logarithm of the IC50 (pIC50) in [5] was 5.25. Also, the viability at 72 h, 0.3 µM in series [6] came to 92%. The viability at 72 h, 1 µM in series [7] was determined as 105%. The viability at 72 h, 3 µM in series [8] came to 101%. In addition, the viability at 72 h, 10 µM in series [9] is 42.3%. The “Ratio IC50” value in series [24] is >25 - 70. Further, the Ratio stood at 1.1 in series [10]; 0.8 in [11]; 0.52 in series [12]; 0.29 in series [13]; 0.89 in series [14]; 0.88 in series [15].
